Data from ChEMBL document CHEMBL1144385, “Solid-phase synthesis and antibacterial evaluations of N-demethylvancomycin derivatives” (2005).
≈ marks a conversion by molar mass, not a printed value.

How the values were obtained:
Format in all cases: functional
Enterococcus faecalis [1] = assay: Minimum inhibitory concentration against growth of Enterococcus faecalis (ATCC 29212)
Staphylococcus aureus [2] = assay: Minimum inhibitory concentration against growth of Methicillin resistant […] aureus
Staphylococcus aureus [3] = assay: Minimum inhibitory concentration against growth of […] aureus (ATCC 29213)
Enterococcus faecalis [4] = assay: Minimum inhibitory concentration against growth of vancomycin-resistant Enterococcus faecalis (ATCC 51299)

Structure (SMILES)	MIC (Enterococcus faecalis [1]) [µg/mL]	MIC (Staphylococcus aureus [2]) [µg/mL]	MIC (Staphylococcus aureus [3]) [µg/mL]	MIC (Enterococcus faecalis [4]) [µg/mL]
CC(C)C[C@H](C(=O)N[C@H]1C(=O)N[C@@H](CC(N)=O)C(=O)N[C@H]2C(=O)N[C@H]3C(=O)N[C@H](C(=O)N[C@H](C(=O)NCC(=O)O)c4cc(O)cc(O)c4-c4cc3ccc4O)[C@H](O)c3ccc(c(Cl)c3)Oc3cc2cc(c3O[C@@H]2O[C@@H](CO)[C@@H](O)[C@H](O)[C@@H]2O[C@H]2C[C@](C)(N)[C@H](O)[C@H](C)O2)Oc2ccc(cc2Cl)[C@H]1O)N(C)C(=O)OCC1c2ccccc2-c2ccccc21	10 (≈ 5.79 µM)	10 (≈ 5.79 µM)	10 (≈ 5.79 µM)	> 10
CCC(CC)N[C@H](CC(C)C)C(=O)N[C@H]1C(=O)N[C@@H](CC(N)=O)C(=O)N[C@H]2C(=O)N[C@H]3C(=O)N[C@H](C(=O)N[C@H](C(=O)NCC(=O)O)c4cc(O)cc(O)c4-c4cc3ccc4O)[C@H](O)c3ccc(c(Cl)c3)Oc3cc2cc(c3O[C@@H]2O[C@@H](CO)[C@@H](O)[C@H](O)[C@@H]2O[C@H]2C[C@](C)(Nc3ccc(-c4ccccc4)cc3)[C@H](O)[C@H](C)O2)Oc2ccc(cc2Cl)[C@H]1O	5 (≈ 2.92 µM)	2.5 (≈ 1.46 µM)	5 (≈ 2.92 µM)	> 10
CCCN[C@H](CC(C)C)C(=O)N[C@H]1C(=O)N[C@@H](CC(N)=O)C(=O)N[C@H]2C(=O)N[C@H]3C(=O)N[C@H](C(=O)N[C@H](C(=O)NCC(=O)O)c4cc(O)cc(O)c4-c4cc3ccc4O)[C@H](O)c3ccc(c(Cl)c3)Oc3cc2cc(c3O[C@@H]2O[C@@H](CO)[C@@H](O)[C@H](O)[C@@H]2O[C@H]2C[C@](C)(Nc3ccc(Cl)cc3)[C@H](O)[C@H](C)O2)Oc2ccc(cc2Cl)[C@H]1O	> 10	10 (≈ 6.08 µM)	10 (≈ 6.08 µM)	> 10
CC(C)C[C@@H](N)C(=O)N[C@H]1C(=O)N[C@@H](CC(N)=O)C(=O)N[C@H]2C(=O)N[C@H]3C(=O)N[C@H](C(=O)N[C@H](C(=O)NCC(=O)O)c4cc(O)cc(O)c4-c4cc3ccc4O)[C@H](O)c3ccc(c(Cl)c3)Oc3cc2cc(c3O[C@@H]2O[C@@H](CO)[C@@H](O)[C@H](O)[C@@H]2O[C@H]2C[C@](C)(Nc3ccc(Cl)cc3)[C@H](O)[C@H](C)O2)Oc2ccc(cc2Cl)[C@H]1O	10 (≈ 6.24 µM)	5 (≈ 3.12 µM)	5 (≈ 3.12 µM)	> 10
CCC(CC)N[C@H](CC(C)C)C(=O)N[C@H]1C(=O)N[C@@H](CC(N)=O)C(=O)N[C@H]2C(=O)N[C@H]3C(=O)N[C@H](C(=O)N[C@H](C(=O)NCC(=O)O)c4cc(O)cc(O)c4-c4cc3ccc4O)[C@H](O)c3ccc(c(Cl)c3)Oc3cc2cc(c3O[C@@H]2O[C@@H](CO)[C@@H](O)[C@H](O)[C@@H]2O[C@H]2C[C@](C)(Nc3ccc(F)cc3)[C@H](O)[C@H](C)O2)Oc2ccc(cc2Cl)[C@H]1O	> 10	> 10	> 10	> 10
CN[C@H](CC(C)C)C(=O)N[C@H]1C(=O)N[C@@H](CC(N)=O)C(=O)N[C@H]2C(=O)N[C@H]3C(=O)N[C@H](C(=O)N[C@H](C(=O)O)c4cc(O)cc(O)c4-c4cc3ccc4O)[C@H](O)c3ccc(c(Cl)c3)Oc3cc2cc(c3O[C@@H]2O[C@H](CO)[C@@H](O)[C@H](O)[C@H]2O[C@H]2C[C@](C)(N)[C@H](O)[C@H](C)O2)Oc2ccc(cc2Cl)[C@H]1O [VANCOMYCIN]	2.5 (≈ 1.73 µM)	1.25 (≈ 0.863 µM)	0.62 (≈ 0.428 µM)	> 10
CCCN[C@H](CC(C)C)C(=O)N[C@H]1C(=O)N[C@@H](CC(N)=O)C(=O)N[C@H]2C(=O)N[C@H]3C(=O)N[C@H](C(=O)N[C@H](C(=O)NCC(=O)O)c4cc(O)cc(O)c4-c4cc3ccc4O)[C@H](O)c3ccc(c(Cl)c3)Oc3cc2cc(c3O[C@@H]2O[C@@H](CO)[C@@H](O)[C@H](O)[C@@H]2O[C@H]2C[C@](C)(Nc3ccc(-c4ccccc4)cc3)[C@H](O)[C@H](C)O2)Oc2ccc(cc2Cl)[C@H]1O	10 (≈ 5.93 µM)	5 (≈ 2.96 µM)	5 (≈ 2.96 µM)	> 10
CCC(CC)N[C@H](CC(C)C)C(=O)N[C@H]1C(=O)N[C@@H](CC(N)=O)C(=O)N[C@H]2C(=O)N[C@H]3C(=O)N[C@H](C(=O)N[C@H](C(=O)NCC(=O)O)c4cc(O)cc(O)c4-c4cc3ccc4O)[C@H](O)c3ccc(c(Cl)c3)Oc3cc2cc(c3O[C@@H]2O[C@@H](CO)[C@@H](O)[C@H](O)[C@@H]2O[C@H]2C[C@](C)(Nc3cccnc3)[C@H](O)[C@H](C)O2)Oc2ccc(cc2Cl)[C@H]1O	> 10	> 10	> 10	> 10
C/C=C/CN(C/C=C/C)[C@H](CC(C)C)C(=O)N[C@H]1C(=O)N[C@@H](CC(N)=O)C(=O)N[C@H]2C(=O)N[C@H]3C(=O)N[C@H](C(=O)N[C@H](C(=O)NCC(=O)O)c4cc(O)cc(O)c4-c4cc3ccc4O)[C@H](O)c3ccc(c(Cl)c3)Oc3cc2cc(c3O[C@@H]2O[C@@H](CO)[C@@H](O)[C@H](O)[C@@H]2O[C@H]2C[C@](C)(Nc3ccc(OC)cc3)[C@H](O)[C@H](C)O2)Oc2ccc(cc2Cl)[C@H]1O	> 10	> 10	10 (≈ 5.86 µM)	> 10
CCCN(CCC)[C@H](CC(C)C)C(=O)N[C@H]1C(=O)N[C@@H](CC(N)=O)C(=O)N[C@H]2C(=O)N[C@H]3C(=O)N[C@H](C(=O)N[C@H](C(=O)NCC(=O)O)c4cc(O)cc(O)c4-c4cc3ccc4O)[C@H](O)c3ccc(c(Cl)c3)Oc3cc2cc(c3O[C@@H]2O[C@@H](CO)[C@@H](O)[C@H](O)[C@@H]2O[C@H]2C[C@](C)(Nc3ccc(F)cc3)[C@H](O)[C@H](C)O2)Oc2ccc(cc2Cl)[C@H]1O	> 10	> 10	> 10	> 10
CC(C)C[C@@H](NC(=O)OCC1c2ccccc2-c2ccccc21)C(=O)N[C@H]1C(=O)N[C@@H](CC(N)=O)C(=O)N[C@H]2C(=O)N[C@H]3C(=O)N[C@H](C(=O)N[C@H](C(=O)NCC(=O)O)c4cc(O)cc(O)c4-c4cc3ccc4O)[C@H](O)c3ccc(c(Cl)c3)Oc3cc2cc(c3O[C@@H]2O[C@@H](CO)[C@@H](O)[C@H](O)[C@@H]2O[C@H]2C[C@](C)(N)[C@H](O)[C@H](C)O2)Oc2ccc(cc2Cl)[C@H]1O	5 (≈ 2.92 µM)	5 (≈ 2.92 µM)	1.25 (≈ 0.729 µM)	> 10
CC(C)C[C@@H](N)C(=O)N[C@H]1C(=O)N[C@@H](CC(N)=O)C(=O)N[C@H]2C(=O)N[C@H]3C(=O)N[C@H](C(=O)N[C@H](C(=O)NCC(=O)O)c4cc(O)cc(O)c4-c4cc3ccc4O)[C@H](O)c3ccc(c(Cl)c3)Oc3cc2cc(c3O[C@@H]2O[C@@H](CO)[C@@H](O)[C@H](O)[C@@H]2O[C@H]2C[C@](C)(Nc3ccc(F)cc3)[C@H](O)[C@H](C)O2)Oc2ccc(cc2Cl)[C@H]1O	2.5 (≈ 1.58 µM)	2.5 (≈ 1.58 µM)	2.5 (≈ 1.58 µM)	> 10
CC(C)C[C@@H](N)C(=O)N[C@@H]1C(=O)N[C@@H](CC(N)=O)C(=O)N[C@H]2C(=O)N[C@H]3C(=O)N[C@H](C(=O)N[C@H](C(=O)O)c4cc(O)cc(O)c4-c4cc3ccc4O)[C@H](O)c3ccc(c(Cl)c3)Oc3cc2cc(c3O[C@@H]2O[C@H](CO)[C@@H](O)[C@H](O)[C@H]2O[C@H]2C[C@](C)(N)C(O)[C@H](C)O2)Oc2ccc(cc2Cl)[C@H]1O (stereo partly drawn) [DEMETHYLVANCOMYCIN]	2.5 (≈ 1.74 µM)	< 0.6	< 0.6	> 10
CCC(CC)N[C@H](CC(C)C)C(=O)N[C@H]1C(=O)N[C@@H](CC(N)=O)C(=O)N[C@H]2C(=O)N[C@H]3C(=O)N[C@H](C(=O)N[C@H](C(=O)NCC(=O)O)c4cc(O)cc(O)c4-c4cc3ccc4O)[C@H](O)c3ccc(c(Cl)c3)Oc3cc2cc(c3O[C@@H]2O[C@@H](CO)[C@@H](O)[C@H](O)[C@@H]2O[C@H]2C[C@](C)(Nc3ccc(OC)cc3)[C@H](O)[C@H](C)O2)Oc2ccc(cc2Cl)[C@H]1O	> 10	> 10	> 10	> 10
CC(C)C[C@H](C(=O)N[C@H]1C(=O)N[C@@H](CC(N)=O)C(=O)N[C@H]2C(=O)N[C@H]3C(=O)N[C@H](C(=O)N[C@H](C(=O)NCC(=O)O)c4cc(O)cc(O)c4-c4cc3ccc4O)[C@H](O)c3ccc(c(Cl)c3)Oc3cc2cc(c3O[C@@H]2O[C@@H](CO)[C@@H](O)[C@H](O)[C@@H]2O[C@H]2C[C@](C)(Nc3cccnc3)[C@H](O)[C@H](C)O2)Oc2ccc(cc2Cl)[C@H]1O)N(CCc1ccccc1)CCc1ccccc1	> 10	> 10	> 10	> 10
CCCN(CCC)[C@H](CC(C)C)C(=O)N[C@H]1C(=O)N[C@@H](CC(N)=O)C(=O)N[C@H]2C(=O)N[C@H]3C(=O)N[C@H](C(=O)N[C@H](C(=O)NCC(=O)O)c4cc(O)cc(O)c4-c4cc3ccc4O)[C@H](O)c3ccc(c(Cl)c3)Oc3cc2cc(c3O[C@@H]2O[C@@H](CO)[C@@H](O)[C@H](O)[C@@H]2O[C@H]2C[C@](C)(Nc3ccc(Cl)cc3)[C@H](O)[C@H](C)O2)Oc2ccc(cc2Cl)[C@H]1O	> 10	5 (≈ 2.96 µM)	5 (≈ 2.96 µM)	> 10
C/C=C/CN(C/C=C/C)[C@H](CC(C)C)C(=O)N[C@H]1C(=O)N[C@@H](CC(N)=O)C(=O)N[C@H]2C(=O)N[C@H]3C(=O)N[C@H](C(=O)N[C@H](C(=O)NCC(=O)O)c4cc(O)cc(O)c4-c4cc3ccc4O)[C@H](O)c3ccc(c(Cl)c3)Oc3cc2cc(c3O[C@@H]2O[C@@H](CO)[C@@H](O)[C@H](O)[C@@H]2O[C@H]2C[C@](C)(Nc3ccc(Cl)cc3)[C@H](O)[C@H](C)O2)Oc2ccc(cc2Cl)[C@H]1O	> 10	> 10	> 10	> 10
